The subject of data set [1] is PC-3. Put plainly: Cytotoxicity, MTT assay, PC-3. The data set is classed as cell-based, human. A digest of the protocol: (§1)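 Cytotoxicity of N-Ac-CHAVC-NH2 and the control peptide N-Ac-CHGVC-NH2 was assessed by MTT reduction in human endothelial, fibroblast and cancer cell lines at concentrations up to 100 μM. Proliferation was measured separately by ^3H-thymidine incorporation over the same concentration range.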

Data set [2] relates to MDA-MB231. As to the kind of experiment: Cytotoxicity, MTT assay, MDA-MB231. The data set is classed as cell-based, human. A digest of the protocol:
as §1

The target of data set [3] is T1, N-cadherin (Gallus gallus, UniProt P10288).
T1 construct: expressed in transfected cells; host or cells: 3T3 fibroblasts (monolayer)
T1 sequence (P10288 165-912): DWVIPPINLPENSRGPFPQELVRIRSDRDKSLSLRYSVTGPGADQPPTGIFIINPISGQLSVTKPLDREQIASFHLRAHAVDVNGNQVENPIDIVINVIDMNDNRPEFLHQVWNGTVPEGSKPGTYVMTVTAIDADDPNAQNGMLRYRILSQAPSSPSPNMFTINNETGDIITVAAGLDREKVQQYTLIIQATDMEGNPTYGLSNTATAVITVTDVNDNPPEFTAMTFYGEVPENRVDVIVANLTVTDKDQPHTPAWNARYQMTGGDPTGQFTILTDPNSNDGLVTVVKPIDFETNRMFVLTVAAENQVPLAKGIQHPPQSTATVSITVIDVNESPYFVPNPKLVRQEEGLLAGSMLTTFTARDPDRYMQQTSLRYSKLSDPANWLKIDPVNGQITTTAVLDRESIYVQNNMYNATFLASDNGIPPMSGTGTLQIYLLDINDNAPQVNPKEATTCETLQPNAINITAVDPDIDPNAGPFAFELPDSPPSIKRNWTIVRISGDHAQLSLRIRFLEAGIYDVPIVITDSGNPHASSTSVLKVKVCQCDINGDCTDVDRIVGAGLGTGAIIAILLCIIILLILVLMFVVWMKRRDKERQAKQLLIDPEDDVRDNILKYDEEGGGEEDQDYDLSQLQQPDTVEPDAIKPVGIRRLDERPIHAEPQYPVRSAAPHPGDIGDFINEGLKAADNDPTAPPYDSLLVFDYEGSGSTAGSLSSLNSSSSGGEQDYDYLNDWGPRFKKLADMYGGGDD
Put plainly: Neurite outgrowth inhibition, rat neurons (Example 21). The data set is classed as cell-based. The conditions noted are these: read-out: % Inhibition of neurite outgrowth; 250 μg/mL.

A further data set concerns WI-38. The data set is classed as cell-based, human. The following applies: 3 h. The gist of the method: as §1
For a further data set, the system named is HUVEC. The data set is classed as cell-based, human. The conditions noted are these: 3 h. The gist of the method:
as §1

In another data set the test system is IAFp2. It is filed as cell-based, human. The following applies: 3 h. A digest of the protocol:
as §1

Data set [4] relates to MDA-MB231. It is filed as cell-based, human. The following applies: 3 h. A digest of the protocol:
as §1

The test system of another data set is HMVEC. It is filed as cell-based, human. The conditions noted are these: 3 h. A digest of the protocol: as §1
In data set [5] the test system is PC-3. It is filed as cell-based, human. The following applies: 3 h. The gist of the method:
as §1

The nature of the next data set: Solubility in RPMI. The data set is classed as physicochemical. The following applies: 1 mM.
Data set [6] has as its target T2, N-cadherin (Homo sapiens, UniProt P19022).
T2 sequence (P19022 160-906): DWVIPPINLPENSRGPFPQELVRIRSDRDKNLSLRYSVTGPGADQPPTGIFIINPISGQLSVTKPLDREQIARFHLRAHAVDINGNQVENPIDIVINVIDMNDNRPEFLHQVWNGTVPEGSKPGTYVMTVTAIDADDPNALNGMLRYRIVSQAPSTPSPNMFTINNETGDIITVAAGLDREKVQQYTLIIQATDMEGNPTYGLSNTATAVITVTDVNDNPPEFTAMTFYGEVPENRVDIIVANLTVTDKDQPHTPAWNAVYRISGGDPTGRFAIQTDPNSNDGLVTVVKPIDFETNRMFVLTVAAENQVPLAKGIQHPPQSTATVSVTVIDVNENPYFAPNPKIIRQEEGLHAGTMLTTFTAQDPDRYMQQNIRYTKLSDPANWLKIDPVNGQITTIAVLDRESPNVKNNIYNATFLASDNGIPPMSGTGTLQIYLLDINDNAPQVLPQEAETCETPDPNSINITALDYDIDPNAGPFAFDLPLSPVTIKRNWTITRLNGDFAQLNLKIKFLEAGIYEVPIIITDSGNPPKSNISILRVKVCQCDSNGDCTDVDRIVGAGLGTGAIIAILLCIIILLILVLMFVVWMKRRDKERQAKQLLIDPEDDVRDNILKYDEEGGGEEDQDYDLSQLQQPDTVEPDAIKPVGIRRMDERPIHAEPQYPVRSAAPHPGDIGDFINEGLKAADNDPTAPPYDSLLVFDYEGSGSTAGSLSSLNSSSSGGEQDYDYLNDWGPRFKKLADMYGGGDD
The following applies: cited from earlier work.

pIC50: −log10 of the molar value. Like-named read-outs stand apart in the source and are kept apart here. Positions of bridges follow the written chain, without caps; N, C: chain ends. Residues, ends and D or L forms follow the SMILES beside them. Some results are limits rather than exact numbers.

As to `CC(=O)N[C@H]1CSSC[C@@H](C(N)=O)NC(=O)[C@H](CO)NC(=O)[C@H](C(C)C)NC(=O)[C@H](C)NC(=O)[C@H](Cc2c[nH]cn2)NC1=O` [N—Ac—CHAVSC—NH2, N-Ac-Cys-His-Ala-Val-Ser-Cys-NH2] (Ac-CHAVSC-NH2; disulfide 1-6 (inferred)), the pIC50 in the data set on PC-3 [1] is < 4.00; with MDA-MB231 [2], < 4.00; in the data set on WI-38 it was < 4.00; in the data set with HUVEC it was 4.24; in the data set on IAFp2, < 4.00; in the data set on MDA-MB231 [4] it was 4.28. Moreover, the pIC50 in the data set with HMVEC and with PC-3 [5] was < 4.00 each time. On N-cadherin [3], the inhibition at 250 µg/mL stood at 0%. Besides, the “solubility in RPMI” value in the data set “Solubility in RPMI” was “*Incompletely soluble in RPMI at 1 mM”.

Regarding “N—AC-CHAVDINGHAVDIC-NH2: cyclic peptide presenting two HAV motifs in an antiparallel fashion (Williams et al. 2002) (Ac-CHAVDINGHAVDIC-NH2; disulfide 1-14 (inferred))”, the “stimulation of neurite outgrowth” value in the data set with N-cadherin [6] is “capable of stimulating neurite outgrowth”.

Source of the values: US20040106545A1, “Compounds and methods for modulating cell adhesion” (priority 1996, published 2004).
